Measured values from patent US8546380B2, “Aminodihydrothiazine derivatives” (Shionogi & Co., Ltd., priority 2005, dated 2013).
Like-named read-outs stand apart in the source and are kept apart here.

Experiments:
[1] = molecular target: recombinant human BACE-1 protein (Homo sapiens (Human), UniProt P56817); test: Measurement of Inhibition of β-Secretase Activity; assay type: biochemical
Method in brief: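 Recombinant human BACE-1 incubated with compound and Eu-cryptate-labelled biotinylated peptide substrate 3 h at 30° C in 50 mM sodium acetate pH 5.0, 0.008% Triton X-100. Streptavidin-XL665 in KF-containing phosphate buffer pH 7.0 then added, 1 h at 30° C, for time-resolved FRET read-out.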

[2] = fluorescence-quenched peptide substrate 18 nM, BACE-1 7.4 nM, 3 h at 30° C., pH5.0, read-out: IC50 value
[3] = recombinant human BACE-1 protein, 3 h at 30° C., pH5.0, read-out: IC50 value

recombinant human BACE-1 protein, sequence (P56817 46-501): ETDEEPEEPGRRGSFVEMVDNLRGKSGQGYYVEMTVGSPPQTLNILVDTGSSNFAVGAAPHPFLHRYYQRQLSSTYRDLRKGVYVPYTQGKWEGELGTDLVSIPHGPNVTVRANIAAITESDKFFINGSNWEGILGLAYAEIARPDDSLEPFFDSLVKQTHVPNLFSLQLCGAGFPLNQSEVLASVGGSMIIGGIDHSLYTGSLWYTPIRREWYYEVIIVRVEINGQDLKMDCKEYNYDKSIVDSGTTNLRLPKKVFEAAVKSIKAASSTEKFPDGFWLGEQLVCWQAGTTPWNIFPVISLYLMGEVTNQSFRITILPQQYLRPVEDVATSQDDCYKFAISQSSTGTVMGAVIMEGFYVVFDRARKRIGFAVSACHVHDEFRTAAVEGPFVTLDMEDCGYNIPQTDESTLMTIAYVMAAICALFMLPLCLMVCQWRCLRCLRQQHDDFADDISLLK

Row | SMILES | melting point | IC50 [1, 2] | IC50 [1, 3] | IC50 [1]
1 | CC1(c2cccc(NC(=O)c3ccc(C(N)=O)cn3)c2)CCSC(N)=N1.Cl (stereo not shown) [Compound 73] | 266 to 269 °C |  | 0.435 µM | 
2 | Cc1cnc(C(=O)Nc2cccc(C3(C)CCSC(N)=N3)c2)cn1 (stereo not shown) [Compound 444] | 214 to 215 °C |  |  | < 100 µM
3 | COCc1cc(NC(=O)c2ccc(Br)cc2)cc(C2(C)CCSC(N)=N2)c1.Cl (stereo not shown) [Compound 1197] | 250 to 255 °C (dec.) |  | 0.912 µM | 
4 | CC1(c2cc(Br)cc(NC(=O)c3nc4ccccc4s3)c2)CCSC(N)=N1.Cl (stereo not shown) [Compound 570] | 186 to 187 °C |  | 0.149 µM | 
5 | CC1(c2cc(Br)cc(NC(=O)c3ccno3)c2)CCSC(N)=N1.Cl (stereo not shown) [Compound 1132] | 175 to 180 °C (dec.) |  | 2.56 µM | 
6 | Cc1cnc(C(=O)Nc2cccc(C3(C)CCSC(N)=N3)c2)cn1.Cl (stereo not shown) [Compound 309] | 241 to 244 °C |  | 0.833 µM | 
7 | CC1(c2cccc(NC(=O)c3ccc(C(F)(F)F)cc3)c2)CCSC(N)=N1 (stereo not shown) [Compound 26] | 182 to 184 °C |  | 1.98 µM | 
8 | CC1(c2cccc(OCCCc3ccccc3)c2)CCSC(N)=N1 (stereo not shown) [Compound 1010] | 90 to 91 °C |  | 2.8 µM | 
9 | CC(C)Oc1cc(NC(=O)c2ccc(Cl)cn2)cc(C2(C)CCSC(N)=N2)c1.Cl (stereo not shown) [Compound 1135] | 255 to 260 °C (dec.) |  | 2.3 µM | 
10 | CC1(c2cc(Br)cc(NC(=O)c3cc4ccccc4s3)c2)CCSC(N)=N1.Cl (stereo not shown) [Compound 1014] | 206 to 210 °C |  | 0.165 µM | 
11 | CC1(c2cc(NC(=O)c3ccc(Cl)cn3)ccc2Cl)CCSC(N)=N1.Cl (stereo not shown) [Compound 1199] | 274 to 283 °C |  | 0.032 µM | 
12 | CC1(c2cc(Br)cc(NC(=O)c3ccc(Cl)cn3)c2)CCSC(N)=N1.Cl (stereo not shown) [Compound 165] | 246 to 248 °C |  | 0.0394 µM | 
13 | CC1(c2cc(NC(=O)c3ccc(Cl)cn3)cc(C(F)(F)F)c2)CCSC(N)=N1 (stereo not shown) [Compound 964] | 185 to 187 °C |  | 0.264 µM | 
14 | Cl.NC1=NC(c2cccc(NC(=O)c3ccc(Cl)cn3)c2)CCS1 (stereo not shown) [Compound 740] | 250 °C (dec.) |  | 0.505 µM | 
15 | CCOC(=O)CCc1cccc(C2(C)CCSC(N)=N2)c1.Cl (stereo not shown) [Compound 720] | 133 to 138 °C | < 100 µM |  | 
16 | CC1(c2ccc(C(=O)Nc3ccc(Cl)cn3)s2)CCSC(N)=N1 (stereo not shown) [Compound 500] | 181 to 184 °C | < 100 µM |  | 
17 | CC1(c2ccc(C(=O)Nc3ccccc3)s2)CCSC(N)=N1 (stereo not shown) [Compound 483] | 224 to 227 °C | < 100 µM |  | 
18 | CC1(c2cc(C#N)cc(NC(=O)c3ccc(Cl)cn3)c2)CCSC(N)=N1 (stereo not shown) [Compound 255] | 238 to 239 °C | < 100 µM |  | 
19 | CC1(c2cccc(NC(=O)c3ncc(Cl)cn3)c2)CCSC(N)=N1 (stereo not shown) [Compound 515] | 204 to 206 °C | < 100 µM |  | 
20 | CC1(c2ccc3ccccc3c2)CCNC(N)=N1.O=S(=O)(O)O (stereo not shown) [Compound 125] | > 300 °C | < 100 µM |  | 
21 | CN(C)c1cnc(C(=O)Nc2cccc(C3(C)CCSC(N)=N3)c2)cn1 (stereo not shown) [Compound 302] | 122 to 126 °C | < 100 µM |  | 
22 | CCC1(c2cccc(NC(=O)c3ccc(Cl)cn3)c2)CCSC(N)=N1 (stereo not shown) [Compound 380] | 181 to 182 °C | < 100 µM |  | 
23 | CC1(c2cccc(/C=C\CCc3ccc(Cl)cc3)c2)CCSC(N)=N1.Cl (stereo not shown) [Compound 1261] | 179 to 180 °C | < 100 µM |  | 
24 | CC(=O)c1ccc(C(=O)Nc2cccc(C3(C)CCSC(N)=N3)c2)nc1 (stereo not shown) [Compound 139] | 287 to 290 °C | < 100 µM |  | 
25 | CC1(c2cccc(OCCOc3ccccc3)c2)CCSC(N)=N1.Cl (stereo not shown) [Compound 57] | 197 to 198 °C | < 100 µM |  | 
26 | CC1(c2cccc(OCCCc3cccnc3)c2)CCSC(N)=N1 (stereo not shown) [Compound 282] | 146 to 147 °C | < 100 µM |  | 
27 | CC1(c2cc(NC(=O)c3ccc(C(F)(F)F)cn3)cc(C(F)(F)F)c2)CCSC(N)=N1 (stereo not shown) [Compound 897] | 212 to 214 °C |  | 0.816 µM | 
28 | Cc1ccc(C(=O)Nc2cccc(C3(C)CCSC(N)=N3)c2)nc1 (stereo not shown) [Compound 528] | 173 to 174 °C | < 100 µM |  | 

Second part, led by results:

Row | melting point | IC50 [1, 2] | IC50 [1, 3] | SMILES | IC50 [1]
29 | 178 to 180 °C | < 100 µM |  | COc1ccc(CNc2cccc(C3(C)CCSC(N)=N3)c2)cc1.Cl.Cl (stereo not shown) [Compound 600] | 
30 | 167 to 169 °C | < 100 µM |  | Cc1ccccc1Oc1ccc(C2(C)CCSC(N)=N2)cc1 (stereo not shown) [Compound 729] | 
31 | 136 to 137 °C | < 100 µM |  | CC1(c2ccc(Cl)cc2)CCSC(N)=N1 (stereo not shown) [Compound 1062] | 
32 | 126 to 129 °C | < 100 µM |  | CC1(c2cccc(COc3ccccc3)c2)CCSC(N)=N1 (stereo not shown) [Compound 990] | 
33 | 164 to 167 °C | < 100 µM |  | COC(=O)c1cc(C(=O)Nc2cccc(C3(C)CCSC(N)=N3)c2)nn1C (stereo not shown) [Compound 687] | 
34 | 187 to 188 °C | < 100 µM |  | CC1(c2csc3ccccc23)CCSC(N)=N1 (stereo not shown) [Compound 42] | 
35 | 221 to 224 °C | < 100 µM |  | CC1(c2cc(F)cc(NC(=O)c3ccc(Cl)cn3)c2)CCSC(N)=N1 (stereo not shown) [Compound 99] | 
36 | 212 to 214 °C | < 100 µM |  | Cc1cnc(C(=O)Nc2ccc(F)c(C3(C)CCSC(N)=N3)c2)cn1 (stereo not shown) [Compound 359] | 
37 | 214 to 217 °C | < 100 µM |  | COc1ccc(C2(C)N=C(N)SCC2C)cc1.Cl (stereo not shown) [Compound 8] | 
38 | 187 to 190 °C | < 100 µM |  | CC1(c2cc(NC(=O)c3n[nH]c4ccccc34)ccc2F)CCSC(N)=N1 (stereo not shown) [Compound 241] | 
39 | 240 to 244 °C (dec.) | < 100 µM |  | CC1(c2ccc3c(c2)NC(=O)CO3)CCSC(N)=N1 (stereo not shown) [Compound 38] | 
40 | 154 to 158 °C | < 100 µM |  | CC1(c2cccc(NCc3ccccn3)c2)CCSC(N)=N1 (stereo not shown) [Compound 333] | 
41 | 169 to 172 °C | < 100 µM |  | CC1(c2ccc(C(=O)NCc3ccccc3)s2)CCSC(N)=N1 (stereo not shown) [Compound 1124] | 
42 | 155 to 156 °C | < 100 µM |  | CC1(c2cc(N)cc(Br)c2)CCSC(N)=N1.Cl.Cl (stereo not shown) [Compound 588] | 
43 | 189 to 191 °C | < 100 µM |  | CC1(c2cccc(NC(=O)c3ccc(N4CCOCC4)cn3)c2)CCSC(N)=N1 (stereo not shown) [Compound 1131] | 
44 | 204 to 205 °C | < 100 µM |  | CC1(c2cccc(NC(=O)c3ccc(Cl)cn3)c2Cl)CCSC(N)=N1 (stereo not shown) [Compound 813] | 
45 | 251 to 254 °C | < 100 µM |  | CC1(c2ccc(O)cc2)CCSC(N)=N1.Cl (stereo not shown) [Compound 413] | 
46 | 217 to 218 °C | < 100 µM |  | CC1(c2cccc(Br)c2)CCSC(N)=N1.Cl (stereo not shown) [Compound 339] | 
47 | 199 to 203 °C | < 100 µM |  | CC1(c2cccc(CCC(=O)Nc3ccc(Cl)cn3)c2)CCSC(N)=N1.Cl.Cl (stereo not shown) [Compound 657] | 

Row | melting point | IC50 [1, 2] | IC50 [1, 3] | SMILES | IC50 [1]
48 | 166 to 168 °C | < 100 µM |  | CC1(c2ccc(Oc3ccc(Br)cc3)cc2)CCSC(N)=N1 (stereo not shown) [Compound 735] | 
49 | 146 to 149 °C | < 100 µM |  | CC1(c2ccc3c(c2)CCO3)CCSC(N)=N1 (stereo not shown) [Compound 1084] | 
50 | 194 to 196 °C | < 100 µM |  | CC1(c2ccc(F)c(OCCCc3ccccc3)c2)CCSC(N)=N1.Cl (stereo not shown) [Compound 1069] | 
51 | 182 to 186 °C (dec.) | < 100 µM |  | CC1(c2cccc(/C(Cl)=C/C(=O)Nc3ccc(Cl)cn3)c2)CCSC(N)=N1 (stereo not shown) [Compound 1142] | 
52 | 121 to 124 °C | < 100 µM |  | COc1ccc(NC(=O)/C=C(\Cl)c2cccc(C3(C)CCSC(N)=N3)c2)cc1 (stereo not shown) [Compound 1114] | 
53 | 128 to 131 °C | < 100 µM |  | Cc1cc(C(=O)Nc2cccc(C3(C)CCSC(N)=N3)c2)n(C)n1 (stereo not shown) [Compound 130] | 
54 | 211 to 214 °C | < 100 µM |  | CC(=O)Nc1cc(Cl)cnc1C(=O)Nc1cccc(C2(C)CCSC(N)=N2)c1 (stereo not shown) [Compound 511] | 
55 | 181 to 183 °C | < 100 µM |  | CC1(c2ccc3c(c2)OCCO3)CCSC(N)=N1 (stereo not shown) [Compound 18] | 
56 | 147 to 148 °C | < 100 µM |  | Cc1ccc(C2(C)CCSC(N)=N2)cc1 (stereo not shown) [Compound 85] | 
57 | 132 to 134 °C | < 100 µM |  | COc1ccc(C(=O)NCc2cccc(C3(C)CCSC(N)=N3)c2)cc1.Cl (stereo not shown) [Compound 452] | 
58 | 105 to 106 °C | < 100 µM |  | CC1(c2cccc(COc3ccc(Cl)cc3)c2)CCSC(N)=N1 (stereo not shown) [Compound 1028] | 
59 | 224 to 225 °C | < 100 µM |  | CC1(c2cc(F)cc(NC(=O)c3ccc(C(F)(F)F)cn3)c2)CCSC(N)=N1 (stereo not shown) [Compound 178] | 
60 | 182 to 184 °C | < 100 µM |  | COc1cnc(C(=O)Nc2cccc(C3(C)CCSC(N)=N3)c2)cn1 (stereo not shown) [Compound 243] | 
61 | 137 to 138 °C | < 100 µM |  | COc1ccc(OCc2cccc(C3(C)CCSC(N)=N3)c2)cc1 (stereo not shown) [Compound 502] | 
62 | 135 to 136 °C | < 100 µM |  | CO/N=C/c1cccc(C2(C)CCSC(N)=N2)c1 (stereo not shown) [Compound 804] | 
63 | 156 to 157 °C | < 100 µM |  | Cc1ccc2cc(C3(C)CCSC(N)=N3)ccc2c1 (stereo not shown) [Compound 758] | 
64 | 159 to 163 °C | < 100 µM |  | COCc1ccc(C(=O)Nc2cccc(C3(C)CCSC(N)=N3)c2)nc1 (stereo not shown) [Compound 128] | 
65 | 205 to 207 °C | < 100 µM |  | CC1(c2cccc(SC(=O)c3ncc(Br)cn3)c2)CCSC(N)=N1 (stereo not shown) [Compound 900] | 
